Laboratory results taken from patent US20240391932A1, “COMPOUNDS, COMPOSITIONS AND METHODS” (Nico Therapeutics, Inc., priority 2021, published 2024).

Test system: NLRP3
Experiment: IL-1β secretion assay in PMA-differentiated, LPS/nigericin-stimulated THP-1 cells (ELISA)
Type: cell-based
Conditions: Homo sapiens, 25 ng/mL LPS, nigericin
Experimental: Compounds as provided herein were tested in the following assay. Cell culture medium employed contained RPMI 1640 medium (89%), FBS (10%), Pen/Strep (1%), and 2-mercaptoethanol (0.05 mM). Freezing medium was made up of 90% FBS and 10% DMSO. THP-1 cells were removed from the liquid nitrogen and placed into a 37° C. water bath to thaw, until signs of ice dissipated. The cells were then added to 9 mL of warm cell culture medium and centrifuged for 5 minutes at 1000 rpm. The supernatant was discarded, and the cells were resuspended in new cell culture medium. THP-1 cells were then split and cultured in the cell culture medium, being passaged every 2-3 days with the cell density will be maintained between 5×10^5 and 1.5×10^6 viable cells/mL.
PMA was dissolved in DMSO to make a stock solution at 5 mg/ml and stored in 10 μl aliquots at −20° C. for single use. PMA is added to normal growth medium. LPS was diluted with 1 mL of water solution to provide a 1 mg/mL stock solution and stored in 15 μl aliquots at −20° C. for single use. Nigericin is diluted in ice cold 100% ethanol to 5 mg/ml (6.7 mM) and stored in 75 μL aliquots at −20° C. for single use. Serum-free media contains RPMI 1640 medium (99%), Pen/Strep (1%), and 2-mercaptoethanol (0.05 mM). The two control conditions used to qualify and normalize test compound dose-response curves were as follows: High Control=25 ng/mL LPS, 5 μM Nigericin, 0.5% DMSO, Low Control=25 ng/ml, LPS, 0.5% DMSO.
THP-1 cells were diluted to provide a suspension at a concentration of 1.0×10^6 cells/mL with the total volume of suspension required to enable the desired number of assay plates. The growth media was supplemented with PMA (5 ng/mL final concentration) and the cells were incubated at 37° C. under a humidified atmosphere of 5% CO2 for 40 h.
All media was carefully aspirated from each culture flask. The cells were washed carefully with 1× DPBS. The cells were then briefly digested with trypsin LE for 5 minutes at 23° C. and immediately resuspended in cell growth media. After resuspension, the cells were centrifuged at 1000 rpm for 3 minutes and the supernatant was discarded. The cells were resuspended in DPBS and once again centrifuged at 1000 rpm for 5 minutes. The supernatant was discarded and the cell pellet was resuspended in serum-free media supplemented with LPS (25 ng/mL final concentration) to enable the distribution of 30K THP-1 cells within 45 μL of media into each well of 384-well PDL-coated plates. The 384-well plates were then incubated at 37° C. under a humidified atmosphere of 5% CO2 for 2 h. Following this period, test compounds were dispensed by Tecan across the desired concentration range with all wells normalized to a final 0.5% DMSO concentration. The plates were then then incubated at 37° C. under a humidified atmosphere of 5% CO2 for 1 h. Following this period, 5 μL of the 5 mg/mL nigericin stock solution was added to each of the appropriate wells and plates were centrifuged at 1000 rpm for 30 seconds. The plates were the immediately reintroduced to the incubator at 37° C. under a humidified atmosphere of 5% CO2 for 2 h. After this time, 35 μL/well of supernatant was collected and transferred into v-bottom plate and centrifuged at 1000 rpm for 1 minute. These supernatant aliquots were analyzed using an IL-Iβ detection kit as described below. If needed, the test samples could be snap frozen and stored at −80° C. until analyzed.
To prepare each ELISA plate, capture antibody (mAb Mt175) was diluted with PBS to a final concentration of 2 μg/mL and then 20 μL of this solution was added to each well of the ELISA plate. Each plate was allowed to incubate overnight at 4° C. The next day, the capture antibody solution was removed and discarded. Each ELISA plate was washed 4 times with PBST followed by the addition of 25 uL/well of blocking buffer (Licor-927-40010) supplemented with 0.1% Tween 20. Each ELISA plate was then allowed to incubate for 1 hour at 23° C. […]

| SMILES | IC50 | IC50 (class symbol) |
| --- | --- | --- |
| O=C(Cn1nc(C(F)F)n2c(cc3sccc32)c1=O)Nc1ncc(F)cn1 [Example 1, 2-(5-(difluoromethyl)-8-oxothieno[2′,3′:4,5]pyrrolo[1,2-d][1,2,4]triazin-7(8H)-yl)-N-(5-fluoropyrimidin-2-yl)acetamide] | 162 nM | < 10000 nM |
| O=C(Cn1nc(C(F)F)n2c(cc3sccc32)c1=O)Nc1ncccn1 [Example 2, 2-(5-(difluoromethyl)-8-oxothieno[2′,3′:4,5]pyrrolo[1,2-d][1,2,4]triazin-7(8H)-yl)-N-(pyrimidin-2-yl)acetamide] | 341 nM | < 10000 nM |
| CC1(O)CC(NC(=O)Cn2nc(C(F)F)n3c(cc4sccc43)c2=O)C1 (stereo not drawn) [Example 3, 2-(5-(difluoromethyl)-8-oxothieno[2′,3′:4,5]pyrrolo[1,2-d][1,2,4]triazin-7(8H)-yl)-N-(3-cis-hydroxy-3-methylcyclobutyl)acetamide] | 101 nM | < 10000 nM |
| N#Cc1cnc(NC(=O)Cn2nc(C(F)F)n3c(cc4sccc43)c2=O)c(F)c1 [Example 4, N-(5-cyano-3-fluoropyridin-2-yl)-2-[12-(difluoromethyl)-9-oxo-5-thia-1,10,11-triazatricyclo[6.4.0.02,6]dodeca-2(6),3,7,11-tetraen-10-yl]acetamide] | 252 nM | < 10000 nM |
| O=C(Cn1nc(CF)n2c(cc3sccc32)c1=O)Nc1ncc(F)cn1 [Example 5, 2-(5-(fluoromethyl)-8-oxothieno[2′,3′:4,5]pyrrolo [1,2-d][1,2,4]triazin-7(8H)-yl)-N-(5-fluoropyrimidin-2-yl)acetamide] | 94 nM | < 10000 nM |
| O=C(Cn1nc(C(F)F)n2c(cc3scnc32)c1=O)Nc1ncc(F)cn1 [Example 6, 2-(5-(difluoromethyl)-8-oxothiazolo[5′,4′:4,5]pyrrolo[1,2-d][1,2,4]triazin-7(8H)-yl)-N-(5-fluoropyrimidin-2-yl)acetamide] | 149 nM | < 10000 nM |
